Results on one compound are retold here after patent EP4659764A1, “LINKER DRUG, AND PREPARATION METHOD AND USE OF ANTIBODY-DRUG CONJUGATE THEREOF” (Lepu Biopharma Co., Ltd., priority 2023, dated 2024).

A word on the IC50: it is the concentration that gives 50% inhibition.

The assay concerns SKBR3 (breast cancer cell line). The assay is described as follows: In vitro cell killing activity of ADCs, SKBR3. It counts as cell-based. The note with it: Homo sapiens, SK-BR-3, incubation 72 hours, ADC DAR 8.0. The text has this:
Referring to the process of Example 13, the linker-drug conjugate mc-AAN-Exatecan was conjugated to a HER2 antibody, an EGFR antibody, and a non-specific binding antibody (Anti-HEL) respectively to prepare the corresponding ADCs. […] The cell killing activity was detected.

Regarding `CC[C@@]1(O)C(=O)OCc2c1cc1n(c2=O)Cc2c-1nc1cc(F)c(C)c3c1c2[C@@H](N)CC3` [Extecan, Exatecan], the IC50 was determined as 2.02 nM.
